Measured values taken from US9661844B2, “Pesticide composition delivery vehicles” (Dow AgroSciences LLC, priority 2012, dated 2017).

What was measured:
[1] = tested on: banana plant; test: Capsule field trial Location 2, banana growth parameters; format: in vivo; conditions: 3.5 Kg/Ha granules
Text: (§1) Field trials for the gel capsules of Example I were established under commercial conditions in banana production areas of Central America. Bananas were transplanted using commercial procedures typical of the area. Gel capsules according to Example I were used as a post-plant treatment. A commercial standard was also included as a comparison in each test. Treatments and use rates for both field trials are included in the Tables 3 and 4 below. Location 1 included four replications for each treatment and location 2 included three replications.
(§2) Gel caps were applied in the area immediately surrounding the base of the banana plant. Holes were made to a depth of 15-20 cm using a rod inserted into the soil. Gel caps were applied into the holes by hand and soil was reapplied into the holes to cover the gel caps. Commercial standards were formulated as granules and applied around the base of the plant without incorporation.
Several parameters were measured at intervals following application of the pesticide. Plant height and plant trunk diameter were evaluated over time at intervals of approximately two, four and six weeks after application of the pesticide. Root weight, percent functional roots and nematode counts were taken at intervals of 45 and 60 days after application (DAA). Plant height and trunk diameter were evaluated as direct measurements and are recorded in units of centimeters. Root weight, percent functional roots and nematode counts were obtained by separate soil samples which were taken and returned to the lab for analysis. Roots were separated from the soil and weighed. A separate, visual estimate was made to determine the percent of these roots that were healthy and functional. Nematode counts were made by extracting them from the roots and soil and then estimating the total by counting the actual number in subsamples of the extracted materials.

[2] = tested on: nematode; test: Capsule field trial Location 2, nematode count; format: in vivo; conditions: 3.5 Kg/Ha granules
Text: as §1, §2
Several parameters were measured at intervals following application of the pesticide. Plant height and plant trunk diameter were evaluated over time at intervals of approximately two, four and six weeks after application of the pesticide. Root weight, percent functional roots and nematode counts were taken at intervals of 45 and 60 days after application (DAA). Plant height and trunk diameter were evaluated as direct measurements and are recorded in units of centimeters. […]

Compound: CCOP(=O)(SC(C)CC)SC(C)CC (stereo not drawn) [cadusaphos, cadusafos]
- Plant Height ([1]; 15 DAA): 143 cm
- Stem diameter ([1]; 15 DAA): 30 cm
- Plant Height ([1]; 29 DAA): 156 cm
- Stem diameter ([1]; 29 DAA): 33 cm
- Plant Height ([1]; 43 DAA): 169 cm
- Stem diameter ([1]; 43 DAA): 36 cm
- % Functional roots ([1]; 45 DAA): 82%
- Root weight ([1]; 45 DAA): 44 gms
- % Functional roots ([1]; 60 DAA): 86%
- Root weight ([1]; 60 DAA): 53 gms
- Nematode count ([2]; 45 DAA): 11,200a
- Nematode count ([2]; 60 DAA): 23,733a
